In one experiment the target is T1, T79S PafA (Elizabethkingia meningoseptica, UniProt Q9KJX5, T79S).
T1 sequence (Q9KJX5 26-546 T79S): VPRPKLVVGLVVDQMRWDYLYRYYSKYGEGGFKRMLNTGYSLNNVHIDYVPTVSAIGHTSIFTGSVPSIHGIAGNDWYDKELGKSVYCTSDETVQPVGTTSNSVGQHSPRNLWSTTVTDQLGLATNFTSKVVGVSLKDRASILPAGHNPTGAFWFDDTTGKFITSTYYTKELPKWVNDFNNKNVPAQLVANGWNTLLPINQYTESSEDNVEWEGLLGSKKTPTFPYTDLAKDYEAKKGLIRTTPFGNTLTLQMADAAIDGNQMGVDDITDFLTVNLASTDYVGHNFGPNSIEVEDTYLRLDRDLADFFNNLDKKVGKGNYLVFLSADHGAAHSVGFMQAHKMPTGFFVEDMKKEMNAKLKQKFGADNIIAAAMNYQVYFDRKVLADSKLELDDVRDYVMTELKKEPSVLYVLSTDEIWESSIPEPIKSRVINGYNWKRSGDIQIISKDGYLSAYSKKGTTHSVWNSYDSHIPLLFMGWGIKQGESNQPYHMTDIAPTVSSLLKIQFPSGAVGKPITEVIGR
Nature of the experiment: biochemical. Conditions: pH 8.0, subsaturating me-pNPP.

The target in a further experiment is T2, R164A PafA (Elizabethkingia meningoseptica, UniProt Q9KJX5, R164A).
T2 sequence (Q9KJX5 26-546 R164A): T1 sequence (Q9KJX5 26-546 T79S) with S54T, R139A
Nature of the experiment: biochemical. Conditions: pH 8.0, subsaturating me-pNPP.

For a further experiment, the target named is T3, N100A PafA (Elizabethkingia meningoseptica, UniProt Q9KJX5, N100A).
T3 sequence (Q9KJX5 26-546 N100A): T1 sequence (Q9KJX5 26-546 T79S) with S54T, N75A
Nature of the experiment: biochemical. Conditions: pH 8.0, subsaturating me-pNPP.

A further experiment has as its target T4, K162A PafA (Elizabethkingia meningoseptica, UniProt Q9KJX5, K162A).
T4 sequence (Q9KJX5 26-546 K162A): T1 sequence (Q9KJX5 26-546 T79S) with S54T, K137A
Nature of the experiment: biochemical. As to conditions: pH 8.0, subsaturating me-pNPP.

The target of another experiment is T5, WT PafA (Elizabethkingia meningoseptica, UniProt Q9KJX5).
T5 sequence (Q9KJX5 26-546): T1 sequence (Q9KJX5 26-546 T79S) with S54T
The experiment in a line: biochemical. Conditions: pH 8.0, subsaturating me-pNPP.

For experiment [1], the system named is EcAP. Conditions: EcAP vs PafA.
Experiment [2] has as its target EcAP. As to conditions: ref 39 and 57; cited from earlier work.

Changes are numbered by the printed parent chain.

As a reminder, the Ki is the equilibrium dissociation constant of an inhibitor or competing ligand from its target.

`[O]=[V]([OH])([OH])[OH]` [vanadate]: the Ki at T79S PafA amounted to 90 µM; on R164A PafA, 300 µM; at N100A PafA it was 190 µM; on K162A PafA, 79 µM; at WT PafA, 0.67 µM.

In the case of `[O]=[W](=[O])([OH])[OH]` [tungstate], the inhibition constant (Ki) was 280 µM at T79S PafA; 1300 µM on R164A PafA; 570 µM on N100A PafA; more than 13000 µM at K162A PafA; 3.9 µM at WT PafA.

Turning to `O=P(O)(O)O` [Pi, inorganic phosphate], the Ki was 9.6 µM at T79S PafA; more than 13000 µM at R164A PafA; 1300 µM at N100A PafA; 4700 µM at K162A PafA; 830 µM at WT PafA. Further, the “product inhibition of EcAP stronger than that for PafA” value with EcAP [1] is reported as “more than 3 orders of magnitude”. The “Ki (product inhibition)” value at EcAP [2] is listed as “low micromolar”.
